From patent publication US20020173424A1, “Heterocyclyl-substituted benzoylcyclohexandiones, their preparation, and their use as herbicides” (priority 2000, published 2002)

Columns and labels:
Setaria species = test: Comparative experiment, post-emergence action against Setaria species; format: in vivo; details: even at a lower application rate
Method: Seeds of monocotyledonous and dicotyledonous weeds are placed in sandy loam soil in cardboard pots, covered with soil and grown in the greenhouse under good growth conditions. Two to three weeks after sowing, the experimental plants are treated at the three-leaf stage. The compounds according to the invention, which are formulated as wettable powders or as emulsion concentrates, are sprayed at a rate of 1 kg of active substance or less per hectare (converted) onto the green plant organs at an application rate of 600 to 800 l of water per ha (converted). After the experimental plants have remained in the greenhouse for approx. 3 to 4 weeks under optimal growth conditions, the effect of the compositions is scored visually in comparison with untreated controls. The compounds according to the invention also have a good herbicidal action against a broad spectrum of economically important monocotyledonous and dicotyledonous harmful plants when applied post-emergence. A large number of compositions according to the invention have an outstanding herbicidal action against the harmful plants.
5. Comparative Experiments
Analogously to the experimental conditions mentioned under item 2 (post-emergence herbicidal action), compound No. 1.1 according to the invention was compared with a prior-art compound with regard to its effect against Setaria species.

| melting point [°C] | Structure (SMILES) | action against Setaria species compared with prior-art compound (Setaria species) |
| --- | --- | --- |
| – | CS(=O)(=O)c1ccc(C(=O)C2C(=O)CCCC2=O)c(Cl)c1C1=NOC2OCCC12 (centres unmarked) [1.1, 2-[2-chloro-4-methylsulfonyl-3-(3a,4,5,6a-tetrahydrofuro-[3,2-d]isoxazol-3-yl)benzoyl]cyclohexane-1,3-dione] | more potent action against Setaria species than the prior-art compound |
| 99 | CCS(=O)(=O)c1ccc(C(=O)C2C(=O)CCCC2=O)c(Cl)c1C1=NOC2OCCC12 (centres unmarked) [1.2, 2-[2-chloro-4-ethylsulfonyl-3-(3a,4,5,6a-tetrahydrofuro[3,2-d]isoxazol-3-yl)benzoyl]cyclohexane-1,3-dione] | – |
